Measured values: patent US11331299B2, “Medicinal use of serrulatane diterpenes” (The University of Sydney, priority 2016, dated 2022)
Where two headings read alike, the source gives them in different places.

Test system: 280 human cancer cell lines
Test: OncoPanel cell proliferation assay (10-day)
Assay type: cell-based
Details: for EC50: read-out: Cell Count EC50; for IC50: read-out: Cell Count IC50
[1] = Homo sapiens, 22Rv1, 22Rv1, Prostate
[2] = Homo sapiens, 786-0, 786-O, Kidney
[3] = Homo sapiens, A7, Skin (Melanoma)
[4] = Homo sapiens, A 172, A172, CNS - Glioma
[5] = Homo sapiens, A253, A-253, Head and Neck
[6] = Homo sapiens, A388, Head and Neck
[7] = Homo sapiens, A498, A498, Kidney
[8] = Homo sapiens, A549, A549, Lung - NSCLC
[9] = Homo sapiens, A673, A-673, Soft Tissue - Sarcoma
[10] = Homo sapiens, A704, A-704, Kidney
[11] = Homo sapiens, A-375, A375, Skin (Melanoma)
[12] = Homo sapiens, A-427, A427, Lung - NSCLC
[13] = Homo sapiens, A-431, A431, Head and Neck
[14] = Homo sapiens, AN3-CA, AN3 CA, Female GU - Uterus
[15] = Homo sapiens, ARH-77, ARH-77, Myeloma
[16] = Homo sapiens, ASPC1, AsPC-1, Pancreas
[17] = Homo sapiens, AU565, AU565, Breast
[18] = Homo sapiens, BCP-1, BCP-1, Lymphoma
[19] = Homo sapiens, BE(2)-C, BE(2)C, CNS - Neuroblastoma
[20] = Homo sapiens, BFTC-905, BFTC-905, Bladder
[21] = Homo sapiens, BHT-101, BHT-101, Endocrine - Thyroid
[22] = Homo sapiens, BM-1604, BM-1604, Prostate
[23] = Homo sapiens, BPH-1, BPH1, Prostate
[24] = Homo sapiens, BT-20, BT20, Breast

With `CC(C)=CCC[C@H](CO)[C@@H]1CC[C@@H](C)c2c1cc(C)c(O)c2O` [Compound 1, 7,8,18-trihydroxyserrulat-14-ene] as the compound, how does the “Number of cell types, GI Activity Potent” value (GI50 range 0.03-0.099 μM, of 280 cell types) read?
Its value is 0.

And the “Number of cell types, GI Activity moderately potent” value (GI50 range 0.1-0.99 μM, of 280 cell types)?
Its value is 23.

And the “Number of cell types, GI Activity Strong” value (GI50 range 1-2.99 μM, of 280 cell types)?
The value was 149.

What about the “Number of cell types, GI Activity moderately strong” value (GI50 range 3-9.99 μM, of 280 cell types) of the same compound?
The value was 99.

What about the “Number of cell types, GI Activity weak” value (GI50 range 10-30.00 μM, of 280 cell types) of the same compound?
Its value is 6.

What about the “Number of cell types, GI Activity very weak” value (GI50 range >30 μM, of 280 cell types) of the same compound?
Its value is 1.

And the EC50 [1]?
Its EC50 is 4.08 µM.

And the GI50 (Homo sapiens, 22Rv1, 22Rv1, Prostate, read-out: Cell Count GI50)?
Its GI50 is 4.06 µM.

And the IC50 [1]?
The IC50 was 4.08 µM.

What about the GI50 (Homo sapiens, 149 cell lines with strong activity, read-out: GI50) of the same compound?
The GI50 was 1 to 2.98 µM.

And the GI50 (Homo sapiens, 174 cell lines with very potent to strong activity, read-out: GI50)?
Its GI50 is 0.006 to 2.98 µM.

And the EC50 (Homo sapiens, 647-V, Bladder)?
Its EC50 is 3.12 µM.

What about the GI50 (Homo sapiens, 647-V, Bladder, read-out: Cell Count GI50) of the same compound?
The GI50 was 3.11 µM.

And the IC50 (Homo sapiens, 647-V, Bladder)?
The IC50 was 3.12 µM.

And the EC50 (Homo sapiens, 769-P, Kidney)?
Its EC50 is 0.85 µM.

And the GI50 (Homo sapiens, 769-P, Kidney, read-out: Cell Count GI50)?
Its GI50 is 0.85 µM.

What about the IC50 (Homo sapiens, 769-P, Kidney) of the same compound?
Its IC50 is 0.85 µM.

And the EC50 [2]?
Its EC50 is 2.05 µM.

And the GI50 (Homo sapiens, 786-0, 786-O, Kidney, read-out: Cell Count GI50)?
Its GI50 is 2.05 µM.

What about the IC50 [2] of the same compound?
Its IC50 is 2.05 µM.

What about the EC50 (Homo sapiens, 5637, Bladder) of the same compound?
The EC50 was 3.38 µM.

What about the GI50 (Homo sapiens, 5637, Bladder, read-out: Cell Count GI50) of the same compound?
Its GI50 is 3.32 µM.

What about the IC50 (Homo sapiens, 5637, Bladder) of the same compound?
Its IC50 is 3.38 µM.

And the EC50 [3]?
The EC50 was 0.94 µM.

What about the GI50 (Homo sapiens, A7, Skin (Melanoma), read-out: Cell Count GI50) of the same compound?
The GI50 was 0.94 µM.

What about the IC50 [3] of the same compound?
The IC50 was 0.94 µM.

What about the EC50 (Homo sapiens, A101D) of the same compound?
The EC50 was 8.42 µM.

What about the GI50 (Homo sapiens, A101D, read-out: Cell Count GI50) of the same compound?
Its GI50 is 8.25 µM.

What about the IC50 (Homo sapiens, A101D) of the same compound?
Its IC50 is 8.42 µM.

And the EC50 [4]?
Its EC50 is 1.12 µM.

And the GI50 (Homo sapiens, A 172, A172, CNS - Glioma, read-out: Cell Count GI50)?
Its GI50 is 1.14 µM.

And the IC50 [4]?
The IC50 was 1.15 µM.

What about the EC50 [5] of the same compound?
The EC50 was 4.13 µM.

What about the GI50 (Homo sapiens, A253, A-253, Head and Neck, read-out: Cell Count GI50) of the same compound?
Its GI50 is 4.13 µM.

What about the IC50 [5] of the same compound?
The IC50 was 4.14 µM.

And the EC50 [6]?
The EC50 was 1.66 µM.

And the GI50 (Homo sapiens, A388, Head and Neck, read-out: Cell Count GI50)?
Its GI50 is 1.66 µM.

And the IC50 [6]?
The IC50 was 1.67 µM.

And the EC50 [7]?
The EC50 was 1.29 µM.

And the GI50 (Homo sapiens, A498, A498, Kidney, read-out: Cell Count GI50)?
Its GI50 is 1.29 µM.

And the IC50 [7]?
Its IC50 is 1.29 µM.

And the EC50 [8]?
Its EC50 is 1.66 µM.

What about the GI50 (Homo sapiens, A549, A549, Lung - NSCLC, read-out: Cell Count GI50) of the same compound?
Its GI50 is 1.66 µM.

What about the IC50 [8] of the same compound?
The IC50 was 1.67 µM.

And the EC50 [9]?
Its EC50 is 1.54 µM.

And the GI50 (Homo sapiens, A673, A-673, Soft Tissue - Sarcoma, read-out: Cell Count GI50)?
Its GI50 is 1.54 µM.

What about the IC50 [9] of the same compound?
The IC50 was 1.55 µM.

What about the EC50 [10] of the same compound?
Its EC50 is 1.57 µM.

And the GI50 (Homo sapiens, A704, A-704, Kidney, read-out: Cell Count GI50)?
The GI50 was 1.54 µM.

What about the IC50 [10] of the same compound?
Its IC50 is 1.6 µM.

What about the EC50 [11] of the same compound?
The EC50 was 1.05 µM.

What about the GI50 (Homo sapiens, A-375, A375, Skin (Melanoma), read-out: Cell Count GI50) of the same compound?
The GI50 was 1.05 µM.

And the IC50 [11]?
Its IC50 is 1.05 µM.

And the EC50 [12]?
Its EC50 is 4.52 µM.

And the GI50 (Homo sapiens, A-427, A427, Lung - NSCLC, read-out: Cell Count GI50)?
The GI50 was 4.5 µM.

What about the IC50 [12] of the same compound?
Its IC50 is 4.52 µM.

What about the EC50 [13] of the same compound?
Its EC50 is 2.8 µM.

And the GI50 (Homo sapiens, A-431, A431, Head and Neck, read-out: Cell Count GI50)?
The GI50 was 2.8 µM.

And the IC50 [13]?
Its IC50 is 2.81 µM.

And the EC50 (Homo sapiens, ACHN, Kidney)?
The EC50 was 1.74 µM.

And the GI50 (Homo sapiens, ACHN, Kidney, read-out: Cell Count GI50)?
Its GI50 is 1.74 µM.

What about the IC50 (Homo sapiens, ACHN, Kidney) of the same compound?
The IC50 was 1.74 µM.

And the EC50 (Homo sapiens, AGS, Stomach)?
Its EC50 is 0.7 µM.

And the GI50 (Homo sapiens, AGS, Stomach, read-out: Cell Count GI50)?
The GI50 was 0.7 µM.

And the IC50 (Homo sapiens, AGS, Stomach)?
Its IC50 is 0.7 µM.

What about the EC50 [14] of the same compound?
The EC50 was 1.52 µM.

What about the GI50 (Homo sapiens, AN3-CA, AN3 CA, Female GU - Uterus, read-out: Cell Count GI50) of the same compound?
The GI50 was 1.49 µM.

And the IC50 [14]?
The IC50 was 1.52 µM.

And the EC50 [15]?
The EC50 was 1.95 µM.

What about the GI50 (Homo sapiens, ARH-77, ARH-77, Myeloma, read-out: Cell Count GI50) of the same compound?
The GI50 was 1.95 µM.

What about the IC50 [15] of the same compound?
The IC50 was 1.97 µM.

What about the EC50 [16] of the same compound?
The EC50 was 2.87 µM.

What about the GI50 (Homo sapiens, ASPC1, AsPC-1, Pancreas, read-out: Cell Count GI50) of the same compound?
Its GI50 is 2.84 µM.

And the IC50 [16]?
The IC50 was 2.87 µM.

And the EC50 [17]?
Its EC50 is 1.62 µM.

And the GI50 (Homo sapiens, AU565, AU565, Breast, read-out: Cell Count GI50)?
The GI50 was 1.61 µM.

And the IC50 [17]?
Its IC50 is 1.62 µM.

And the EC50 (Homo sapiens, BC-1, Lymphoma)?
Its EC50 is 1.52 µM.

And the GI50 (Homo sapiens, BC-1, Lymphoma, read-out: Cell Count GI50)?
Its GI50 is 1.51 µM.

And the IC50 (Homo sapiens, BC-1, Lymphoma)?
Its IC50 is 1.52 µM.

What about the EC50 [18] of the same compound?
Its EC50 is 3.18 µM.

And the GI50 (Homo sapiens, BCP-1, BCP-1, Lymphoma, read-out: Cell Count GI50)?
The GI50 was 3.14 µM.

And the IC50 [18]?
Its IC50 is 3.18 µM.

What about the EC50 [19] of the same compound?
The EC50 was 4.23 µM.

And the GI50 (Homo sapiens, BE(2)-C, BE(2)C, CNS - Neuroblastoma, read-out: Cell Count GI50)?
The GI50 was 4.18 µM.

And the IC50 [19]?
Its IC50 is 4.23 µM.

And the EC50 [20]?
Its EC50 is 1.79 µM.

And the GI50 (Homo sapiens, BFTC-905, BFTC-905, Bladder, read-out: Cell Count GI50)?
Its GI50 is 1.78 µM.

What about the IC50 [20] of the same compound?
The IC50 was 1.79 µM.

What about the EC50 [21] of the same compound?
The EC50 was 2.16 µM.

What about the GI50 (Homo sapiens, BHT-101, BHT-101, Endocrine - Thyroid, read-out: Cell Count GI50) of the same compound?
The GI50 was 2.17 µM.

And the IC50 [21]?
The IC50 was 2.17 µM.

What about the EC50 [22] of the same compound?
The EC50 was 2.58 µM.

What about the GI50 (Homo sapiens, BM-1604, BM-1604, Prostate, read-out: Cell Count GI50) of the same compound?
Its GI50 is 2.56 µM.

And the IC50 [22]?
The IC50 was 2.58 µM.

And the EC50 [23]?
The EC50 was 5.24 µM.

What about the GI50 (Homo sapiens, BPH-1, BPH1, Prostate, read-out: Cell Count GI50) of the same compound?
Its GI50 is 5.2 µM.

And the IC50 [23]?
The IC50 was 5.24 µM.

What about the EC50 [24] of the same compound?
Its EC50 is 1.59 µM.

And the GI50 (Homo sapiens, BT-20, BT20, Breast, read-out: Cell Count GI50)?
The GI50 was 1.53 µM.

And the IC50 [24]?
Its IC50 is 1.61 µM.
